Data reported in patent US8901177B2, “Method of treating bladder disorders” (Targacept, Inc., priority 2012, dated 2014).
“Also recorded” adds a separate entry of the source.

Assays:
[1] = tested on: bladder function in anesthetized rats; experiment: Intravesical model in anesthetized rats (increased bladder contraction frequency), cystometry; type: in vivo, rat; details: 1 μM and 10 μM intravesical infusion
Method: Female Sprague Dawley rats (200-290 g) from Charles River France, housed in 3-4 rats per cage were anesthetized with urethane (1.2 g/kg) s.c., 3 mL/kg). A polyethylene catheter was implanted into the bladder through the dome. Ureters were tied and cut. Intravesical infusion periods with saline followed by an intravesical infusion period with one of the test compounds, hexamethonium (10 μM) or dexmecamylamine (1 and 10 μM), are depicted in FIG. 7.
The intravesical anesthetized rat model is a model of increased bladder contraction frequency. The model is a “simplified” well established model used to evaluate OAB agents, recognizing that there are decreased inputs from cortical centers. This is the first known experiment using the intravesical anesthetized rat model of increased bladder contraction frequency to test dexmecamylamine for potential efficacy in treating OAB.

[2] = type: in vivo, human
Method: More recently, dexmecamylamine was evaluated as adjunctive therapy in the treatment of major depressive disorder (MDD) in a large international Phase 3 depression program. […] More than 2400 subjects have received dexmecamylamine in double-blind or open-label studies.
No safety studies using dexmecamylamine have been performed in OAB. Phase 2 and Phase 3 clinical studies using dexmecamylamine in Major Depressive Disorder (MDD) have been conducted and completed. […] Briefly, in the fixed dose Phase 3 studies in MDD, at doses of 2 mg BID (the maximum doses to be studied in the OAB study), the most frequent treatment emergent adverse events that were reported more than 2% more commonly in the dexmecamylamine group compared to placebo group were: constipation (15.2% dexmecamylamine vs. 3.8% placebo); and dry mouth (7.0% dexmecamylamine vs. 1.3% placebo).

NMDA receptor NR1a-NR2A = NMDA receptor NR1a-NR2A (Homo sapiens, UniProt Q05586+Q12879); experiment: Glutamate-evoked currents at NR1a-NR2A receptors in Xenopus oocytes (two electrode voltage-clamp); type: cell-based
Method: All experiments were carried out at receptors expressed in Xenopus oocytes using the method of cDNA expression. Currents evoked by glutamate were recorded using the standard two electrode voltage-clamp configuration (TVEC). Xenopus oocytes were prepared and injected using standard procedures.
Briefly, ovaries are harvested from Xenopus Laevis females that have been deeply anesthetized and pithed following the animal rights rule from the Geneva canton. A small piece of ovary is isolated for immediate preparation while the remaining part is placed at 4° C. in a sterile Barth solution containing in mM NaCl 88, KCl 1, NaHCO3 2.4, HEPES 10, MgSO4.7H2O 0.82, Ca(NO3)2.4H2O 0.33, CaCl2.6H2O 0.41, at pH 7.4, and supplemented with 20 μg/ml of kanamycine, 100 unit/ml penicillin and 100 μg/ml streptomycin. On the second day following dissociation, oocytes are injected with 2 ng of cDNA per oocyte containing the NR1a-NR2A or NR1a-NR2B using an automated injector (Hogg et al., J. Neurosci. Methods, 2008). […] Cells were held at −80 mV. Data were filtered at 10 Hz, captured at 100 Hz and analyzed using HiQ proprietary data acquisition and analysis software running under Matlab (Mathworks Inc.).
Oocytes expressing the NR1a-NR2A or NR1a-NR2B receptors were challenged at periodic intervals with a glutamate test pulse. Test drug was then applied during a sustained period and its effects monitored by measuring the amplitude and time course of the glutamate evoked currents.
Experiments were carried out with the NR1a-NR2A and NR1a-NR2B at least in triplicate. Positive reference compounds (ketamine and MK-801) were tested using the same protocol.
To further evaluate effects of TC-5214, experiments using sustained exposure to this compound followed by a recovery period were carried out at NR1a-NR2A and NR1a-NR2B receptors. Measurements were made with (nM) 0, 3, 10, 30, 100, 300, TC-5214 and recovery monitored during 10 minutes. In addition, the same experimental protocol will be used with cells in control conditions to assess the stability of the measurements. Effects were measured in at least three cells.
A use-dependent protocol was used to identify non-competitive inhibition of the receptors. Cells expressing the NMDA receptors were tested for their sensitivity to TC-5214 at 30 nM, using the same protocol as described above. Cells from the same batch were tested in parallel using the same incubation time with an identical concentration of TC-5214 (30 nM) but in absence of pulses during the incubation time with the compound. Two glutamate pulses were applied at the end of the incubation time, and recovery monitored as for the control conditions.

[3] = target: T1, α6-containing nicotinic receptors (Homo sapiens, UniProt Q15825); experiment: α6-containing nicotinic receptors expressed in oocytes, stimulated with acetylcholine; type: cell-based; details: acetylcholine alone or with increasing concentrations
T1 construct: expressed in transfected cells; host or cells: oocytes

[4] = Clinical trial for treatment of depression: rates of urinary tract infection and urinary retention; type: in vivo, human; details: oral tablets 0.1, 0.5, 2 or 4 mg BID
Method: FIG. 24 is a table showing rates of urinary tract infection (UTI) and urinary retention in human patients administered dexmecamylamine in a yet unpublished clinical trial for treatment of depression. Patients received orally administered dexmecamylamine tablets of 0.1 mg, 0.5 mg, 2 mg or 4 mg BID (twice daily). At the end of the trial period, the patients were evaluated and the rates of side effects, including urinary tract infection (UTI) and urinary retention, were recorded.

[5] = tested on: bladder function in conscious Sprague Dawley rats; experiment: Oral administration (gavage) in awake, conscious rats, cystometry; details: 1 mg/kg oral gavage; for bladder contraction amplitude: compared to baseline/control; for change in spontaneous activity (SA), a surrogate for urge: compared to control; for change in bladder capacity / change in micturition interval / ICI / change in micturition volume: relative to baseline/control
Method: A further study was conducted to evaluate the effects of TC-5214 on bladder function in awake, conscious Sprague Dawley rats.
Nine female Sprague Dawley rats received intravesical saline at a rate of 10 mL/hr. Following a 60-minute baseline evaluation, rats were administered dexmecamylamine at a dose of 1 mg/kg by oral gavage, a dose previously determined to be the “No Effect Dose” in safety pharmacology studies. Two hours following the oral administration of dexmecamylamine, cystometric parameters were collected over a period of one hour.

Sequence of NMDA receptor NR1a-NR2A (Q12879 23-1464, other chains not shown): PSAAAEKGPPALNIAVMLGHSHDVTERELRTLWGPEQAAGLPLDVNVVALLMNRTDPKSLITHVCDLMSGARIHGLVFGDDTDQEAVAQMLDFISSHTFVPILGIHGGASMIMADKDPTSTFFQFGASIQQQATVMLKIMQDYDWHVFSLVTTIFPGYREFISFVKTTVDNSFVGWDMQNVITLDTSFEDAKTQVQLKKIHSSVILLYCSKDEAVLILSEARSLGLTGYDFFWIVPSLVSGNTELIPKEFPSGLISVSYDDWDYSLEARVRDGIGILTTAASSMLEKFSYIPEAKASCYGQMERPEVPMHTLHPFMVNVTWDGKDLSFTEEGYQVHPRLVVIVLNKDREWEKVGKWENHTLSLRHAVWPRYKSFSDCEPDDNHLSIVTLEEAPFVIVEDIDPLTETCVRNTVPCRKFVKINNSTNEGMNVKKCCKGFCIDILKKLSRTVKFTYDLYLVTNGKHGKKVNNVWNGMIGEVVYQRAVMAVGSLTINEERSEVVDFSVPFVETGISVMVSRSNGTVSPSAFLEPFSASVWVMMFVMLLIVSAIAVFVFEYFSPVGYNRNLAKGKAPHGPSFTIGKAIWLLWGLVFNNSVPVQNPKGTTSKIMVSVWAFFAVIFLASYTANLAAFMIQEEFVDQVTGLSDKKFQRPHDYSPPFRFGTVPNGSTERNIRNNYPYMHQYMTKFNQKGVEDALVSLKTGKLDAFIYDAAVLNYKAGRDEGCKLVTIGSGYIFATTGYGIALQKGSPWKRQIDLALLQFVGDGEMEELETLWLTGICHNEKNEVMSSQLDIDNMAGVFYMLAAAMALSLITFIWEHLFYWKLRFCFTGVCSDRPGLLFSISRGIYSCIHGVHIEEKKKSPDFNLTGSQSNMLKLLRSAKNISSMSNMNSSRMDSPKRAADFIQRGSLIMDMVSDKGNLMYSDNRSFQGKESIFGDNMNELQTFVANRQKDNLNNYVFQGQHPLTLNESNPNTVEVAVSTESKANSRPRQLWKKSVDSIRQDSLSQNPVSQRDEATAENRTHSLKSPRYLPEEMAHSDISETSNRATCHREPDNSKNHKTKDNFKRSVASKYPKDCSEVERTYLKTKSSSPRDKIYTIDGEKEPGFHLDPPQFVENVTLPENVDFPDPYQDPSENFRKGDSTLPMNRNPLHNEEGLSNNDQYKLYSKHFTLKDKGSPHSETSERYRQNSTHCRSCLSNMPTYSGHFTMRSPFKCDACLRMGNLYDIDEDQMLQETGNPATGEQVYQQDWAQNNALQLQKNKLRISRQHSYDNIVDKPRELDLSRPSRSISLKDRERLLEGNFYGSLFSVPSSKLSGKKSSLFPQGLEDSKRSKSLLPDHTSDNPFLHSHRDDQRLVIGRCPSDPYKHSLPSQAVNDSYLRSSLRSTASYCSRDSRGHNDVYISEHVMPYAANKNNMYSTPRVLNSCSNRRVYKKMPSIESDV
T1 sequence (Q15825 26-494): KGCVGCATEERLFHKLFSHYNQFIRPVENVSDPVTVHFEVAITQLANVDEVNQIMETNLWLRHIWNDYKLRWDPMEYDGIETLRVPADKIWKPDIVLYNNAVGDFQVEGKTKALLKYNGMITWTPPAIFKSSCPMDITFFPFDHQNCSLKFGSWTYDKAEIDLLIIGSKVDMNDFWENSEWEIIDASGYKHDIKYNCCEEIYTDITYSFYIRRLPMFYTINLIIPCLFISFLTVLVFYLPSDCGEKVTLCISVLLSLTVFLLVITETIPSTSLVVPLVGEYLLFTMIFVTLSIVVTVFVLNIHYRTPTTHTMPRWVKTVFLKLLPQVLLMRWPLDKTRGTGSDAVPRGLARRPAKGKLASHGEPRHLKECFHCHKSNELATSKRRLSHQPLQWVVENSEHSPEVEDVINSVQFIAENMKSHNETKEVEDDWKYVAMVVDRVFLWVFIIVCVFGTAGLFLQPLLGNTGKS

CNC1(C)[C@H]2CCC(C2)C1(C)C (stereo partly drawn) [TC-5214, (S)—N,2,3,3-tetramethylnorbornan-2-amine]
bladder capacity (BC) [1]: statistically significant increase
inter-contraction interval (ICI) [1]: statistically significant increase
micturition frequency (MF) [1]: statistically significant decrease
bladder contraction amplitude (AM) ([1]; listed as dexmecamylamine): no significant decrease; also recorded: no significant change
efficacy in the treatment of depression ([2]; adjunctive therapy, Phase 3 program): failed to demonstrate efficacy
vital signs, blood or urine laboratory measurements, ECG conduction intervals, suicidality ([2]; human, in vivo): no noteworthy differences
extent of inhibition over concentration range (FIG. 22) (NMDA receptor NR1a-NR2A; 3, 10, 30, 100, 300 nM, Glutamate 10 μM-Glycine 1 μM): complete inhibition
concentration at which it potently inhibits (NMDA receptor NR1a-NR2A; FIG. 23 legend): 10 to 30 nM
recovery following wash-out (NMDA receptor NR1a-NR2A; after sustained exposure): clear evidence for recovery
sensitivity of α6-containing nicotinic receptors [3]: sensitive
side effects due to urinary retention [4]: without therapy-limiting side effects due to urinary retention
bladder contraction amplitude [5]: placebo-like
bladder contraction amplitude ([5]; listed as dexmecamylamine): without producing detrimental changes; also recorded: insignificant effect
change in spontaneous activity (SA), a surrogate for urge [5]: statistically significant differential
change in spontaneous activity (SA), a surrogate for urge ([5]; listed as dexmecamylamine): significant decrease
bladder compliance ([5]; relative to baseline): without producing detrimental changes
micturition pressure ([5]; relative to baseline): without producing detrimental changes
change in bladder capacity [5]: statistically significant increase
change in micturition interval / ICI [5]: statistically significant increase
change in micturition volume [5]: statistically significant increase
change in bladder capacity ([5]; listed as dexmecamylamine): statistically significant (Student paired-t test) increases
change in micturition interval / ICI ([5]; listed as dexmecamylamine): statistically significant (Student paired-t test) increases
change in micturition volume ([5]; listed as dexmecamylamine): statistically significant (Student paired-t test) increases
micturition interval ([5]; Last 1H (from 2 h after dosing), baseline First 1H 6.44 ± 1.24, FIG. 25 gives minutes): 9.44 ± 1.87
RV (Bcap-MV) ([5]; Last 1H, baseline First 1H 0.06 ± 0.02): 0.09 ± 0.04
B compliance ([5]; Last 1H, baseline First 1H 0.11 ± 0.03): 0.13 ± 0.03
Bcap ([5]; Last 1H, baseline First 1H 1.04 ± 0.24): 1.58 ± 0.31
SA (IMP-BP) ([5]; Last 1H, baseline First 1H 6.55 ± 2.01): 6.99 ± 2.57
BP (baseline) ([5]; Last 1H, baseline First 1H 10.39 ± 1.96): 8.60 ± 1.10
IMP ([5]; Last 1H, baseline First 1H 16.94 ± 3.94): 15.6 ± 2.91
TP ([5]; Last 1H, baseline First 1H 23.27 ± 3.82): 23.3 ± 2.0
